According to patent US10918733B2, “Lipopeptide- and lipoprotein-conjugates and its use” (HELMHOLTZ-ZENTRUM FUER INFEKTIONSFORSCHUNG GMBH, priority 2009, dated 2021):

Tests used:
[1] = test system: Ova-specific CD8+ T cells; assay: Proliferation of CFSE-stained T cells co-cultured with treated DC: CD8+ T cells; assay type: cell-based, OT1-tg mice; details: DC incubated with 10 μg/mL for 24 h, co-culture 4 days
Protocol: (§1) T cell-mediated immune responses were investigated 96 h by measuring the proliferation of cells recovered from spleens after restimulation with BPPcysOva^mPEG. Non-Ag restimulated spleen cells were chosen as negative controls (FIG. 3). […] Taking into consideration that the BPPcysOva^mPEG has a promising effect on DC activation and maturation, next the capacity of these APC to stimulate the proliferation of antigen-specific CD8+ and CD4+ T cells was evaluated. Concentrations below 10^−8 M of BPPcysOva^mPEG were still able to induce an antigen specific proliferation of CD4+ T cells shown by the reduction of CFSE+ cells (FIGS. 4A-E).
(§2) FIG. 4: Proliferation of CD8+, CD4+ and regulatory T cells. DC were generated from bone marrow of C57BL/6 mice and incubated with 10 μg/mL of B) Ova C) Ova peptides, D) Ova in the presence of BPPcysMPEG and E) BPPcysOva^mPEG alone (A) Control) for 24 h. The following day, CD4+ T cells from spleens of OT2-tg animals or CD8+ T cells of OT1-tg animals were isolated. After staining with CFSE, CD8+, CD4+ T cells were co-cultured with adjuvant-treated DCs for 4 days. The decrease of CFSE-FITC expression due to cell division of CD8+ or CD4+ T cells were analysed by flow cytometric analysis. One representative experiment out of two is shown.

[2] = test system: Ova-specific CD4+CD25+Foxp3+ regulatory T cells; assay: Proliferation of T cells co-cultured with treated DC: regulatory T cells; assay type: cell-based, OTII mice; details: DC incubated with 10 μg/mL for 24 h, co-culture 4 days
Protocol: as §1, §2

spleen cells = assay: Proliferation of spleen cells of immunized mice after in vitro restimulation with Ova, day 42 (Example 5); assay type: in vivo; details: i.n., restimulation with Ova
Protocol: Experimental protocol: Spleens were removed and pooled for analysis of cellular immune responses. Cells were grown in RPMI 1640 supplemented with 10% fetal calf serum, 100 U/ml of penicillin, 50 μg/ml of streptomycin, 5×10^−5 M 2-mercaptoethanol and 1 mM L-glutamine (GIBCO BRL, Karlsruhe, Germany) and maintained at 37° C. in a humidified 5% CO2 atmosphere. Lymph node and spleen cell suspensions were adjusted to 5×10^6 cells/ml in complete medium, cells were seeded with 100 μl per well in a flat-bottomed 96-well microtiter plate (Nunc) and plates were incubated for 4 days in the presence of different concentrations of Ova. Each concentration was tested in triplicates. During the final 18 h of culture, 1 μCi of [^3H]thymidine (Amersham International, Freiburg, Germany) was added to each well. Cells were then harvested on paper filters (Filtermat A; Wallac, Freiburg, Germany) by using a cell harvester (Inotech, Wohlen, Switzerland), and the amount of incorporated [^3H]thymidine into the DNA of proliferating cells was determined by a β-scintillation counter (Wallac 1450, Micro-Trilux). The results are expressed as the arithmetic mean of [^3H]thymidine uptake in cpm.
T cell-mediated immune responses were investigated at day 42 by measuring the proliferation of cells recovered from spleens after in vitro restimulation with Ova. […]

CD4 peptide: Ova CD4 epitope peptide alone (KISQAVHAAHAEINEAG; UniProt P01012 323-339, looked up, fragment) [reference compound]
stimulation of proliferation of Ova-specific CD8+ T cells by treated DC [1]: weak stimulation
stimulation of proliferation of Ova-specific CD4+CD25+Foxp3+ regulatory T cells by treated DC [2]: very efficiently

B1: LPS free Ova: EndoGrade Ovalbumin, Hyglos GmbH (protein, UniProt P01012 2-386, looked up)
Ovalbumin: GSIGAASMEFCFDVFKELKVHHANENIFYCPIAIMSALAMVYLGAKDSTRTQINKVVRFDKLPGFGDSIEAQCGTSVNVHSSLRDILNQITKPNDVYSFSLASRLYAEERYPILPEYLQCVKELYRGGLEPINFQTAADQARELINSWVESQTNGIIRNVLQPSSVDSQTAMVLVNAIVFKGLWEKAFKDEDTQAMPFRVTEQESKPVQMMYQIGLFRVASMASEKMKILELPFASGTMSMLVLLPDEVSGLEQLESIINFEKLTEWTSSNVMEERKIKVYLPRMKMEEKYNLTSVLMAMGITDVFSSSANLSGISSAESLKISQAVHAAHAEINEAGREVVGSAEAGVDAASVSEEFRADHPFLFCIKHIATNAVLFFGRCVSP
modifications: endotoxin-free
notes: EndoGrade Ovalbumin, Hyglos GmbH
proliferative response of spleen cells, i.n. immunization (spleen cells): failed to induce detectable cellular proliferation
